Laboratory results from ChEMBL document CHEMBL5579839, “Discovery of new cyclopropane sulfonamide derivatives as EGFR inhibitors to overcome C797S-mediated resistance and EGFR double mutation” (Eur J Med Chem, 2024).

Assays:
BaF3 [1] = test: Antiproliferative activity against mouse BaF3 cells harboring EGFR C797S/L858R/T790M mutant; format: functional, cell-based
BaF3 [2] = test: Antiproliferative activity against mouse BaF3 cells harboring EGFR C797S/Del19/T790M mutant; format: functional, cell-based
[3] = Cytotoxicity against human L02 cells; format: toxicity, cell-based
[4] = Cytotoxicity against human HK-2 cells; format: toxicity, cell-based
[5] = Cytotoxicity against human HaCaT cells; format: toxicity, cell-based
[6] = Cytotoxicity against human HUVEC cells; format: toxicity, cell-based
[7] = Cytotoxicity against VEGF-stimulated human HUVEC cells; format: toxicity, cell-based
BaF3 [8] = test: Inhibition of cell growth in mouse BaF3 cells harboring EGFR del19/T790M/C797S mutant incubated for 72 hrs by fluorescence based assay; format: functional; conditions: BaF3, 72 h
BaF3 [9] = test: Inhibition of cell growth in mouse BaF3 cells harboring EGFR del19/T790M/C797S mutant; format: functional, cell-based
BaF3 [10] = test: Inhibition of cell growth in mouse BaF3 cells harboring EGFR L858R/T790M/C797S mutant; format: functional, cell-based
BaF3 [11] = test: Inhibition of cell proliferation in mouse BaF3 cells harboring EGFR L858R/T790M mutant incubated for 72 hrs by MTS assay; format: functional, cell-based; conditions: BaF3, 72 h
[12] = Toxicity in nude mouse xenografted with human NCI-H1975 cells assessed as body weight loss at 25 mg/kg, po measured for 7 days; format: organism-based; conditions: in vivo, 168 h, time 7 day
[13] = target: Epidermal growth factor receptor (Homo sapiens, UniProt P00533); test: Inhibition of wild-type EGFR (unknown origin)
Sequence of Epidermal growth factor receptor (Homo sapiens, UniProt P00533) (P00533 whole entry): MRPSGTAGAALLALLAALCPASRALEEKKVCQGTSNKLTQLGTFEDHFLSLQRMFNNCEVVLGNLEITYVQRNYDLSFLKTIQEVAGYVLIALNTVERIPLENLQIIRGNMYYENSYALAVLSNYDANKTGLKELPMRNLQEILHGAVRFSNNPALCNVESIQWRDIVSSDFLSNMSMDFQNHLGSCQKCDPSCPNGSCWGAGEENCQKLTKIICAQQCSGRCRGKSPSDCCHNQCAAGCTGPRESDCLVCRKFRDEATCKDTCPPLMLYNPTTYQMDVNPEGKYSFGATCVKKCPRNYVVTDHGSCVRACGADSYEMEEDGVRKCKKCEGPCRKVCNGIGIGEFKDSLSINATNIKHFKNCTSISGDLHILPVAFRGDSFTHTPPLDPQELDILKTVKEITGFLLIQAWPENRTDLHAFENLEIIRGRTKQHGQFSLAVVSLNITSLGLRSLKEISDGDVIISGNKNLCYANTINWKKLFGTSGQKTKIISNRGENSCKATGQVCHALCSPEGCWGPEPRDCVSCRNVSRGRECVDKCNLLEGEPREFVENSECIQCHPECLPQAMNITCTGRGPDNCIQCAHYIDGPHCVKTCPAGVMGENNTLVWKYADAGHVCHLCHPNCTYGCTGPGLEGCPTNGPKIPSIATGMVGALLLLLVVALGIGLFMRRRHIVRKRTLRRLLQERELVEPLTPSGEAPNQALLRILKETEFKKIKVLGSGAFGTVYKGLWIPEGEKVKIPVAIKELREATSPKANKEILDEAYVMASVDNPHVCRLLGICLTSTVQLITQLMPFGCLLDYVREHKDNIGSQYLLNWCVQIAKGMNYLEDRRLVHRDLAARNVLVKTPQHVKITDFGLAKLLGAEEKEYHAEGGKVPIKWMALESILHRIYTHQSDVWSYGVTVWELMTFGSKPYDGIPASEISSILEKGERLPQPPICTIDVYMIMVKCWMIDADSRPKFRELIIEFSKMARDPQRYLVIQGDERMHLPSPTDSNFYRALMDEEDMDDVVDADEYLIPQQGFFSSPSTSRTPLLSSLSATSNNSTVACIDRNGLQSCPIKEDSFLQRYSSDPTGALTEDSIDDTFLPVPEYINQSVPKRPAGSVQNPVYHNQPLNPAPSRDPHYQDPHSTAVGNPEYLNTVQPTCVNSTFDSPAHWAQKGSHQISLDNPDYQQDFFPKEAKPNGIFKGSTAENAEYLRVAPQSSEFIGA

[14] = target: Epidermal growth factor receptor (Homo sapiens, UniProt P00533, L858R/T790M); test: Inhibition of EGFR T790M/L858R mutant (unknown origin)
Sequence of Epidermal growth factor receptor (Homo sapiens, UniProt P00533, L858R/T790M) (P00533 25-1210 T790M/L858R limits assumed): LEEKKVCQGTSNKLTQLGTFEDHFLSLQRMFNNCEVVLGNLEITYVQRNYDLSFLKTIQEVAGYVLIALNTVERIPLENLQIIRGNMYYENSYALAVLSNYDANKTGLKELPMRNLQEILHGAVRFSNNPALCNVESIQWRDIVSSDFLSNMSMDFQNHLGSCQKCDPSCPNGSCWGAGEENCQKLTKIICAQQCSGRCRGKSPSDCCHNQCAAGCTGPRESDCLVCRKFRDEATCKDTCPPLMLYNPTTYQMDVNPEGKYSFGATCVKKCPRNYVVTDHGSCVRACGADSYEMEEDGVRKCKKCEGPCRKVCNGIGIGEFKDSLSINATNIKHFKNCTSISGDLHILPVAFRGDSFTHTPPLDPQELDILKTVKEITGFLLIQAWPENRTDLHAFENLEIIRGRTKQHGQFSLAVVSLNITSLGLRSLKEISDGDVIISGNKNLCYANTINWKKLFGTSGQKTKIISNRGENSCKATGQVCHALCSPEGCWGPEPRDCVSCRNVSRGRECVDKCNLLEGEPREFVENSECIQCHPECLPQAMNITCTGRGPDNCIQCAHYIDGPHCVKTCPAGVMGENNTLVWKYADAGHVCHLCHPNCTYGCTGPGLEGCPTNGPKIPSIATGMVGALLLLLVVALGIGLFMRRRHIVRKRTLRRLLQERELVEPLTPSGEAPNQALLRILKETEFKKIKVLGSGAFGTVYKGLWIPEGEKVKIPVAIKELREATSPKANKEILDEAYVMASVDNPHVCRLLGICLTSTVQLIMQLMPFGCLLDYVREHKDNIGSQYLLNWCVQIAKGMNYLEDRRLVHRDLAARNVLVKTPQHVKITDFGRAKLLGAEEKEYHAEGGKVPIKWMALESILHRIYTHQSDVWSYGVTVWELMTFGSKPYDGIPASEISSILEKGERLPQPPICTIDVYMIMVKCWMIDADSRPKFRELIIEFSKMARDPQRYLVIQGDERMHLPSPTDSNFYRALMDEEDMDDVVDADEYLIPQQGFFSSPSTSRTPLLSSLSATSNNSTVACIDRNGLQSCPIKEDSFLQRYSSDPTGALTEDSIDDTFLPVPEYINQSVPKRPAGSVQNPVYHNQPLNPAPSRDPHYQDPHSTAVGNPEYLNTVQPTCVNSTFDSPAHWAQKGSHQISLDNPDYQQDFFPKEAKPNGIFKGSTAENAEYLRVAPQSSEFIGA

[15] = target: Epidermal growth factor receptor (Homo sapiens, UniProt P00533, C797S/L858R/T790M); test: Inhibition of EGFR C797S/T790M/L858R mutant (unknown origin)
Sequence of Epidermal growth factor receptor (Homo sapiens, UniProt P00533, C797S/L858R/T790M) (P00533 25-1210 T790M/C797S/L858R limits assumed): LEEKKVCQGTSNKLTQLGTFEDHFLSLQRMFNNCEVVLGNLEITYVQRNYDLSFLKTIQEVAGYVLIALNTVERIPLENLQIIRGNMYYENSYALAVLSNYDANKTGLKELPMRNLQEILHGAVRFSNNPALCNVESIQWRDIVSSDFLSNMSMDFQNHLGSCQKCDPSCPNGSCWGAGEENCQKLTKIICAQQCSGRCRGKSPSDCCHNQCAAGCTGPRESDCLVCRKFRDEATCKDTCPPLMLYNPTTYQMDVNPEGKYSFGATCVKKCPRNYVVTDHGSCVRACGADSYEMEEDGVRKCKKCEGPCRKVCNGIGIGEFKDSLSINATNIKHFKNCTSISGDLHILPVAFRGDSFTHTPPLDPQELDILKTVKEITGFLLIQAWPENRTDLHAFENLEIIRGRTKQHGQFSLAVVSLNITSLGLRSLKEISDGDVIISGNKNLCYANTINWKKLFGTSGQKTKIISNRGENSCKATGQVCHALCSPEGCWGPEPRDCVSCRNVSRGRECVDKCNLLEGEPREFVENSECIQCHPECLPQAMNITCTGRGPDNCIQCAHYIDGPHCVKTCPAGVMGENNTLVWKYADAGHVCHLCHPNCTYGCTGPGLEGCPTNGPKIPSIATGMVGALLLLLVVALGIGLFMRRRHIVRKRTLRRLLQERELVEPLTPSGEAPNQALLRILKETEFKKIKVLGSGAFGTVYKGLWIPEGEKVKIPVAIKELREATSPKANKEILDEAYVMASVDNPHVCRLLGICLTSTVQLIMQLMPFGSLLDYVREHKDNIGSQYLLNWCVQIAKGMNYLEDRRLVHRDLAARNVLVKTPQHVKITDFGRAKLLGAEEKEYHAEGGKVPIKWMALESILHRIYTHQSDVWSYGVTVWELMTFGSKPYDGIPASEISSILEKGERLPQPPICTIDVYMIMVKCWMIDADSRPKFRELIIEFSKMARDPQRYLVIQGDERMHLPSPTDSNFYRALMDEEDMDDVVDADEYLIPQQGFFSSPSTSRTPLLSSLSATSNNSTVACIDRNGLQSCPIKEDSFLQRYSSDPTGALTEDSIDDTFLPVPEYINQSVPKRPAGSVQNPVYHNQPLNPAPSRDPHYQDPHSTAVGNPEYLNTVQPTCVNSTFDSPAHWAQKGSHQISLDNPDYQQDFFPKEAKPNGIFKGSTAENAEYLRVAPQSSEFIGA

[16] = target: Epidermal growth factor receptor (Homo sapiens, UniProt P00533, C797S/EX19DEL/T790M); test: Inhibition of EGFR C797S/T790M/Del19 mutant (unknown origin)
Sequence of Epidermal growth factor receptor (Homo sapiens, UniProt P00533, C797S/EX19DEL/T790M) (P00533 whole entry, looked up, stated change not applied): as the sequence (P00533 whole entry) above

Row | SMILES | IC50 (BaF3 [1]) [nM] | IC50 (BaF3 [2]) [nM] | also measured
1 | Cc1cc(Nc2ncc(Br)c(Nc3ccccc3NS(=O)(=O)C3CC3)n2)ccc1N(C)CCN(C)C | 17 | 15 | 
2 | COc1cc(N2CCC(N3CCN(C)CC3)CC2)ccc1Nc1ncc(Cl)c(Nc2ccccc2P(C)(C)=O)n1 [BRIGATINIB] | 71 | 65 | IC50 [3]: 1400 nM; IC50 [4]: 2130 nM; IC50 [5]: 5020 nM; IC50 [6]: 2170 nM; IC50 [7]: 2400 nM
3 | COc1cc(N2CCC(N3CCN(C)CC3)CC2)ccc1Nc1ncc(Cl)c(Nc2ccccc2NS(C)(=O)=O)n1 |  |  | IC50 (BaF3 [8]): 27 nM
4 | COc1cc(N2CCC(N(C)C)CC2)ccc1Nc1ncc(Br)c(Nc2ccccc2NS(=O)(=O)C2CC2)n1 | 79 | 75 | 
5 | CCS(=O)(=O)Nc1cc(Nc2ncc(Cl)c(Nc3ccccc3NS(=O)(=O)C3CC3)n2)ccc1N1CCCN(C)CC1 | 698 | 682 | 
6 | CN(C)CCN(C)c1ccc(Nc2ncc(Cl)c(Nc3ccccc3NS(=O)(=O)C3CC3)n2)cc1 | 28 | 24 | 
7 | COc1cc(N2CCC(N(C)C)CC2)ccc1Nc1ncc(Cl)c(Nc2ccccc2NS(=O)(=O)C2CC2)n1 | 98 | 101 | 
8 | Cn1cnc2ccc(Nc3ncc(Cl)c(Nc4ccccc4NS(=O)(=O)C4CC4)n3)cc21 | 185 | 198 | 
9 | CN(C)C1CCN(c2ccc(Nc3ncc(Br)c(Nc4ccccc4NS(=O)(=O)C4CC4)n3)cc2)CC1 | 4 | 4 | 
10 | Cc1cc(Nc2ncc(Br)c(Nc3ccccc3NS(=O)(=O)C3CC3)n2)ccc1N1CCC(N(C)C)CC1 | 3 | 4 | 
11 | CN(C)C1CCN(c2ccc(Nc3ncc(Cl)c(Nc4ccccc4NS(=O)(=O)C4CC4)n3)cc2NS(C)(=O)=O)CC1 | 844 | 795 | 
12 | CN1CCN(c2ccc(Nc3ncc(Cl)c(Nc4ccccc4P(C)(C)=O)n3)cc2Br)CC1 |  |  | IC50 (BaF3 [9]): 2.4 nM; IC50 (BaF3 [10]): 3.1 nM
13 | O=S(=O)(Nc1ccccc1Nc1nc(Nc2cccc3[nH]cnc23)ncc1Cl)C1CC1 | 175 | 191 | 
14 | Cn1ccc2ccc(Nc3ncc(Br)c(Nc4ccccc4NS(=O)(=O)C4CC4)n3)cc21 | 257 | 271 | 
15 | CCS(=O)(=O)Nc1cc(Nc2ncc(Br)c(Nc3ccccc3NS(=O)(=O)C3CC3)n2)ccc1N1CCCN(C)CC1 | 631 | 635 | 
16 | Cn1ccc2ccc(Nc3ncc(Cl)c(Nc4ccccc4NS(=O)(=O)C4CC4)n3)cc21 | 284 | 274 | 
17 | COc1cc(N2CCCN(C)CC2)ccc1Nc1ncc(Br)c(Nc2ccccc2NS(=O)(=O)C2CC2)n1 | 67 | 65 | 
18 | CN(C)CCN(C)c1ccc(Nc2ncc(Br)c(Nc3ccccc3NS(=O)(=O)C3CC3)n2)cc1 | 15 | 13 | 
19 | Cc1cc(Nc2ncc(Cl)c(Nc3ccccc3NS(=O)(=O)C3CC3)n2)ccc1N(C)CCN(C)C | 29 | 22 | 
20 | Cn1ccc2c(Nc3ncc(Cl)c(Nc4ccccc4NS(=O)(=O)C4CC4)n3)cccc21 | 211 | 199 | 
21 | O=C(Nc1nccs1)C(c1cc(F)ccc1O)N1Cc2ccccc2C1=O (stereo unspecified) |  |  | IC50 (BaF3 [11]): ~10 nM

Row | SMILES | IC50 (BaF3 [1]) [nM] | IC50 (BaF3 [2]) [nM] | also measured
22 | CN1CCCN(c2ccc(Nc3ncc(Cl)c(Nc4ccccc4NS(=O)(=O)C4CC4)n3)cc2NS(=O)(=O)C2CC2)CC1 | 413 | 407 | 
23 | C=CC(=O)Nc1cc(Nc2nccc(-c3cn(C)c4ccccc34)n2)c(OC)cc1N(C)CCN(C)C [OSIMERTINIB] |  |  | Activity [12]: Toxic; IC50 [4]: 2140 nM; IC50 [5]: 3360 nM; IC50 [6]: 2400 nM; IC50 [7]: 2400 nM
24 | CN(C)C1CCN(c2ccc(Nc3ncc(Br)c(Nc4ccccc4NS(=O)(=O)C4CC4)n3)cc2NS(=O)(=O)C2CC2)CC1 | 398 | 410 | 
25 | CN(C)CCn1ccc2cccc(Nc3ncc(Br)c(Nc4ccccc4NS(=O)(=O)C4CC4)n3)c21 | 324 | 388 | 
26 | CN1CCCN(c2ccc(Nc3ncc(Cl)c(Nc4ccccc4NS(=O)(=O)C4CC4)n3)cc2)CC1 | 10 | 8 | 
27 | CN(C)CCn1ccc2cccc(Nc3ncc(Cl)c(Nc4ccccc4NS(=O)(=O)C4CC4)n3)c21 | 356 | 342 | 
28 | CN1CCCN(c2ccc(Nc3ncc(Br)c(Nc4ccccc4NS(=O)(=O)C4CC4)n3)cc2NS(C)(=O)=O)CC1 | 791 | 775 | 
29 | O=S(=O)(Nc1ccccc1Nc1nc(Nc2cccc3[nH]ccc23)ncc1Cl)C1CC1 | 196 | 185 | 
30 | O=S(=O)(Nc1ccccc1Nc1nc(Nc2cccc3[nH]ccc23)ncc1Br)C1CC1 | 124 | 159 | 
31 | Cc1cc(Nc2ncc(Br)c(Nc3ccccc3NS(=O)(=O)C3CC3)n2)ccc1N1CCCN(C)CC1 | 1 | 1 | IC50 [13]: 61.3 nM; IC50 [14]: 10.2 nM; IC50 [15]: 0.28 nM; IC50 [16]: 0.3 nM
32 | CN(C)C1CCN(c2ccc(Nc3ncc(Cl)c(Nc4ccccc4NS(=O)(=O)C4CC4)n3)cc2)CC1 | 15 | 11 | 
33 | CN(C)C1CCN(c2ccc(Nc3ncc(Br)c(Nc4ccccc4NS(=O)(=O)C4CC4)n3)cc2NS(C)(=O)=O)CC1 | 785 | 769 | 
34 | Cc1cc(Nc2ncc(Cl)c(Nc3ccccc3NS(=O)(=O)C3CC3)n2)ccc1N1CCC(N(C)C)CC1 | 2 | 1 | IC50 [13]: 68.7 nM; IC50 [14]: 12.6 nM; IC50 [15]: 0.37 nM; IC50 [16]: 0.29 nM
35 | Cn1ccc2c(Nc3ncc(Br)c(Nc4ccccc4NS(=O)(=O)C4CC4)n3)cccc21 | 183 | 177 | 
36 | CCS(=O)(=O)Nc1cc(Nc2ncc(Br)c(Nc3ccccc3NS(=O)(=O)C3CC3)n2)ccc1N1CCC(N(C)C)CC1 | 613 | 608 | 
37 | CN1CCCN(c2ccc(Nc3ncc(Cl)c(Nc4ccccc4NS(=O)(=O)C4CC4)n3)cc2NS(C)(=O)=O)CC1 | 723 | 712 | 
38 | CN1CCCN(c2ccc(Nc3ncc(Br)c(Nc4ccccc4NS(=O)(=O)C4CC4)n3)cc2NS(=O)(=O)C2CC2)CC1 | 377 | 351 | 
39 | Cn1cnc2ccc(Nc3ncc(Br)c(Nc4ccccc4NS(=O)(=O)C4CC4)n3)cc21 | 103 | 115 | 
40 | COc1cc(N2CCCN(C)CC2)ccc1Nc1ncc(Cl)c(Nc2ccccc2NS(=O)(=O)C2CC2)n1 | 82 | 79 | 
41 | Cc1cc(Nc2ncc(Cl)c(Nc3ccccc3NS(=O)(=O)C3CC3)n2)ccc1N1CCCN(C)CC1 | 4 | 8 | 
